PubChem BioAssay AID2060489 (Molecular Pharmacology Branch, DTP, NCI, 2025)

Test system: 922993-354-T-J3-PDC complex spheroids, viability
Assay: Anticancer human tumor 922993-354-T-J3-PDC patient-derived endometrial carcinoma cell line growth inhibition [GQUAD]
Details: for IC50: curve of first compound; for viability, T/C: stronger effect = lower value
Method in brief: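 Viability of tumor cells grown as complex spheroids with endothelial and stromal cells, exposed to drug combinations. Top concentration at or near clinical Cmax (else 10 microM), diluted in half-log increments.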
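Also: spheroids exposed to compounds for seven days.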
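For viability, T/C in this document: 100% = DMSO vehicle control viability.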

C=CCn1c(=O)c2cnc(Nc3ccc(N4CCN(C)CC4)cc3)nc2n1-c1cccc(C(C)(C)O)n1 + Cc1cnc(CNC(=O)c2c(=O)c3ccc(N4CCCN(C)CC4)nc3n3c2sc2ccccc23)cn1
IC50 (second compound 0.0316 µM): 2610 nM
IC50 (second compound 0.1 µM): 1060 nM
IC50 (second compound 0.316 µM): < 31.6 nM
IC50 (second compound 1 µM): < 31.6 nM
IC50 (second compound 3.16 µM): 828 nM
IC50 (second compound 10 µM): < 31.6 nM
viability, T/C (second compound 0.0316 µM, first compound 0.0316 µM): 92.1%
viability, T/C (second compound 0.0316 µM, first compound 0.1 µM): 70.7%
viability, T/C (second compound 0.0316 µM, first compound 0.316 µM): 81.6%
viability, T/C (second compound 0.0316 µM, first compound 1 µM): 78.6%
viability, T/C (second compound 0.0316 µM, first compound 3.16 µM): 44.3%
viability, T/C (second compound 0.0316 µM, first compound 10 µM): 28.4%
viability, T/C (second compound 0.1 µM, first compound 0.0316 µM): 69.1%
viability, T/C (second compound 0.1 µM, first compound 0.1 µM): 60%
viability, T/C (second compound 0.1 µM, first compound 0.316 µM): 55.6%
viability, T/C (second compound 0.1 µM, first compound 1 µM): 51.5%
viability, T/C (second compound 0.1 µM, first compound 3.16 µM): 23.1%
viability, T/C (second compound 0.1 µM, first compound 10 µM): 25%
viability, T/C (second compound 0.316 µM, first compound 0.0316 µM): 50.9%
viability, T/C (second compound 0.316 µM, first compound 0.1 µM): 42%
viability, T/C (second compound 0.316 µM, first compound 0.316 µM): 32.1%
viability, T/C (second compound 0.316 µM, first compound 1 µM): 36.4%
viability, T/C (second compound 0.316 µM, first compound 3.16 µM): 41.3%
viability, T/C (second compound 0.316 µM, first compound 10 µM): 33.8%
viability, T/C (second compound 1 µM, first compound 0.0316 µM): 42.8%
viability, T/C (second compound 1 µM, first compound 0.1 µM): 49.4%
viability, T/C (second compound 1 µM, first compound 0.316 µM): 39.2%
viability, T/C (second compound 1 µM, first compound 1 µM): 39.4%
viability, T/C (second compound 1 µM, first compound 3.16 µM): 47.5%
viability, T/C (second compound 1 µM, first compound 10 µM): 44.1%
viability, T/C (second compound 3.16 µM, first compound 0.0316 µM): 56%
viability, T/C (second compound 3.16 µM, first compound 0.1 µM): 49.9%
viability, T/C (second compound 3.16 µM, first compound 0.316 µM): 49.5%
viability, T/C (second compound 3.16 µM, first compound 1 µM): 41.4%
viability, T/C (second compound 3.16 µM, first compound 3.16 µM): 50.5%
viability, T/C (second compound 3.16 µM, first compound 10 µM): 53.8%
viability, T/C (second compound 10 µM, first compound 0.0316 µM): 47.7%
viability, T/C (second compound 10 µM, first compound 0.1 µM): 36%
viability, T/C (second compound 10 µM, first compound 0.316 µM): 45.7%
viability, T/C (second compound 10 µM, first compound 1 µM): 40.8%
viability, T/C (second compound 10 µM, first compound 3.16 µM): 40.9%
viability, T/C (second compound 10 µM, first compound 10 µM): 39.1%
